Experimental data reported in patent US8207191B2, “Process, salts, composition and use” (Glaxo Group Limited, priority 2003, dated 2012).

Experiments:
[1] = solid-state properties of the crystalline salt (stability, hygroscopicity); assay type: physicochemical
[2] = applied as a suitable topical formulation

- hygroscopicity of the crystalline form [1]: non-hygroscopic
- stability of the crystalline form [1]: stable
Compound: C=CC1(C)CC(OC(=O)CSC2CC3CCC(C2)N3C)C2(C)C(C)CCC3(CCC(=O)C32)C(C)C1O.O=C(O)CCC(=O)O (stereo not drawn) [hydrosuccinate salt, hydrosuccinate salt of mutilin 14-(exo-8-methyl-8-azabicyclo[3.2.1]oct-3-ylsulfanyl)-acetate]
- irritation [2]: does not cause significant irritation
